Source: article PMC9031226, “Preclinical Therapeutic Assessment of a New Chemotherapeutics [Dichloro(4,4’-Bis(2,2,3,3-Tetrafluoropropoxy) Methyl)-2,2’-Bipryridine) Platinum] in an Orthotopic Patient-Derived Xenograft Model of Triple-Negative Breast Cancers” (Pharmaceutics, 2022)
pIC50: −log10 of the molar value.

Legend:
[1] = test system: P53, Ki-67, cleaved caspase 3, PD-L1; assay: Immunohistochemistry of CDX tumors; assay type: in vivo, mice; conditions: 5 mg/kg
Excerpt: Formalin-fixed and paraffin-embedded 4 μm sections of tumor and organs from cell-bearing xenograft models were stained in hematoxylin and eosin to provide an overall morphology of tissues. Tumor sections were dewaxed with UltraClear™ (J.T.Baker, Phillipsburg, NJ, USA), rehydrated in a descending series of alcohol and water and had antigens unmasked in pH 6 or pH 9 Epitope Retrieval Solution (Leica Biosystems Inc., Wetzlar, Germany) in a microwave pressure cooker. […] VisUCyte HRP Polymer Antibody against rabbit IgG (VC003-025; R&D Systems, Minneapolis, MN, USA) and mouse IgG (VC001-025; R&D Systems, Minneapolis, MN, USA) were targeted to primary antibodies. Liquid DAB+ system from Agilent Technologies (Santa Clara, CA, USA) was applied as a chromogen for visualizing. Slides were mounted after hematoxylin counterstaining. All images were scanned using Motic EasyScan Pro 6 pathology slide scanner (Motic China Group Co., Ltd., Hong Kong, China).

STAT3-DN plasmid = assay: Gel-based electrophoretic mobility shift assay; assay type: binding; conditions: 24 h, 37 °C
Protocol: Plasmid DNA interacting with platinum-containing compounds was studied using agarose gel electrophoresis to separate DNA fragments dependent on sizes and structures. In total, […] of STAT3-DN plasmid (BIOTOOLS Co., New Taipei City, Taiwan) around 4.8 kb provided by Dr. Chien-Huang Lin was incubated with an equal volume of increasing concentrations of compounds (5~40 µM) at 37 °C for 24 h.

[2] = test system: patient-derived TNBC tumors; assay: Orthotopic patient-derived xenograft (PDX) model, tumor growth; assay type: in vivo; conditions: NSG mice
Excerpt: The procedures for the establishment of breast cancer-bearing xenograft models were modified from previous publications and approved by the Taipei Medical University (TMU) Institutional Animal Care and Use Committee (IACUC No. LAC- 2021-0546) and the Joint Institutional Review Board of Taipei Medical University (N201812005). Overall, 4- to 6-week-old NOD.Cg-PrkdcscidIl2rgtm1Wjl/SzJ (NSG) female mice purchased from BioLASCO Taiwan Co., Ltd. (Taipei, Taiwan) were housed in specific pathogen-free rooms with ad libitum feeding and 12 h light–dark cycle. Patient-derived TNBC tumors were microscopically considered for a hypervascular background and frequent mitosis features, and triple-negative results for estrogen receptor, progesterone receptor and human epidermal growth factor receptor 2 (HER2). After a week of acclimatization, patient-derived TNBC tumors dissected into 3 × 3 × 3 mm^3 were implanted using puncture needle in fat pads between the third and fourth mammary glands for each mouse.
Tumor growth curves were generated by measuring tumor diameters and then calculating based on the same equation described above. Finally, the mice were sacrificed on day 23 after the first dose of treatments. Plasma, tumors and major organs (heart, liver, kidney, spleen and lung) were collected for toxicity assessment and metastasis evaluation.

MCF-7 = assay: MTT cell viability assay on MCF-7; assay type: cell-based, human; conditions: for reduction in cell viability (antiproliferative effect): MCF-7, 80 μM
Protocol: (§1) Human cancer cell lines, including MDA-MB-231, MCF-7, COLO205 and SK-OV-3, used in this study were purchased from American Type Culture Collection (ATCC, Manassas, VA, USA). All cell cultures were maintained in a 5% CO2-containing incubator at 37 °C. Triple-negative breast cancer cell line MDA-MB-231 and estrogen receptor-positive breast cancer cells MCF-7 were cultured in Dulbecco’s Modified Eagle Medium/Nutrient Mixture F-12 medium (DMEM/F12, Thermo Fisher Scientific Inc., Waltham, MA, USA) supplemented with 1% HyClone Penicillin-Streptomycin 100X solution (Cytiva, Marlborough, MA, USA) and 10% (v/v) fetal bovine serum (Thermo Fisher Scientific Inc., Waltham, MA, USA). COLO205 colon cancer cells and SK-OV-3 ovarian cancer cells were cultured in Roswell Park Memorial Institute (RPMI) 1640 medium (Thermo Fisher Scientific Inc., Waltham, MA, USA) containing the same supplements as described above.
(§2) Cell viability was evaluated using MTT assay. […] A viable cell count was determined by adding MTT reagent (3-(4,5-Dimethyl-2-thiazolyl)-2,5-diphenyl-2H-tetrazolium bromide (MTT; SERVA, Heidelberg, Germany) at a concentration of 5 mg/mL in PBS followed by measurement of the absorbance at 570 nm for each well detected by μQuant™ universal microplate spectrophotometer (BioTek, Winowski, VT, USA). The assessment procedures were followed under the manufacturer’s instructions. The final results were represented as mean values in the same experimental group detected by a microplate reader.

MDA-MB-231 cells = assay: Cell line-derived xenograft (CDX) model, tumor growth; assay type: in vivo; conditions: NSG mice
Protocol: The procedures for the establishment of breast cancer-bearing xenograft models were modified from a previous publication and approved by the Taipei Medical University (TMU) Institutional Animal Care and Use Committee (IACUC No. LAC-2020-0175). Overall, 4- to 6-week-old NOD.Cg-PrkdcscidIl2rgtm1Wjl/SzJ (NSG) female mice purchased from National Laboratory Animal Center (Taipei, Taiwan) were housed in specific pathogen-free rooms with ad libitum feeding and 12 h light–dark cycle. After a week of acclimatization, 2 × 10^6 MDA-MB-231 cells suspended in 1:1 ratio of phosphate-buffered saline plus Matrigel® Matrix (Cat. 356237; Corning Inc., New York, NY, USA) were subcutaneously injected on the right flank of each mouse. […] To monitor tumor growth in the models, tumor diameter was measured using an electronic caliper and values were applied on the equation: width^2 × length × 0.52 to estimate their tumor volume. All mice were sacrificed on day 28 after treatment. Plasma, tumors and major organs (heart, liver, kidney, spleen and lung) were collected for toxicity assessment and metastasis evaluation.

MDA-MB-231 = assay: MTT cell viability assay on MDA-MB-231; assay type: cell-based, human; conditions: for reduction in cell viability: MDA-MB-231, 20 μM; for pIC50: MDA-MB-231, MTT assay, 48 h
Protocol: as §1, §2

[3] = 5 mg/kg i.p. weekly x4, day 28, PBS 1412.72 ± 120.85

Compound	expression of P53, Ki-67 and PD-L1 in tumors (IHC) [1]	expression of cleaved caspase 3 in tumors (IHC) [1]	breakage of plasmid DNA (nicked or linear forms) (STAT3-DN plasmid)	average tumor volume and weight compared among groups ([2]; 5 mg/kg i.v. weekly x4, day 23)	reduction in cell viability (antiproliferative effect) (MCF-7)	pIC50 (MCF-7; MCF-7, MTT assay, 48 h)	IC50 Values (MCF-7; MCF-7, MTT assay, 48 h)	tumor weight (MDA-MB-231 cells; 5 mg/kg i.p. weekly x4, day 28)	average tumor volume (MDA-MB-231 cells; [3])	reduction in cell viability (MDA-MB-231)	pIC50 (MDA-MB-231)	average tumor volume vs. control ([2]; 2.11 or 5 mg/kg i.v. weekly x4)	average tumor volume (MDA-MB-231 cells; 2.11 mg/kg i.p. weekly x4, day 28, PBS 1412.72 ± 120.85)
FC(F)C(F)(F)COCc1ccnc(-c2cc(COCC(F)(F)C(F)F)ccn2)c1.[Cl][Pt][Cl] [TFBPC]	lowest level in expressions of P53, Ki-67 and PD-L1	highest expression of cleaved caspase 3	induced single or double breakages of plasmid DNA	smallest size in volume	28%	< 4.10	resistant	~ 0.3 g	~413.03 ± 87.50 mm^3	88%	5.41	–	–
N.N.[Cl][Pt][Cl] [CDDP, Cis-diamineplatinum(II) dichloride]	lower intensity in P53, Ki-67 and PD-L1	higher intensity of cleaved caspase 3	induced single or double breakages of plasmid DNA	–	19%	< 4.10	–	–	~540.23 ± 133.20 mm^3	10%	< 4.10	no statistical difference	around 821.66 ± 133.75 mm^3
